Where two headings read alike, the source gives them in different places.
What was measured:
[1] = cited from earlier work
[2] = humans, intravenous; cited from earlier work
[3] = system: hypoxia-inducible factor-1α (HIF-1α); test: Western blot of brain proteins for HIF-1α after intranasal DFO; format: in vivo; conditions: rats, Western blot quantitation
Excerpt: Intranasal DFO reduced infarct volumes by 60% when expressed as either total infarct, cortical infarct, or striatal infarct volume. Brain proteins from olfactory bulb and from striatum were subjected to Western blot analysis for hypoxia-inducible factor-1α (HIF-1α). See FIG. 1 for a bar graph illustrating the results (10) for control animals (C) and pretreated animals (P). The results are shown broken into the cortex (12), striatum (14) and overall total (16) infarct volumes for control/pretreated animals. […] Here, the control animals' (C) total infarct volume is 175.93 mm^3 (18), while the pretreated animals' (P) total infarct volume is 70.57 mm^3 (20). Thus, a reduction of 60% in infarct volume is realized by way of this pretreatment regimen.
Additional brain samples from animals treated with intranasal DFO were generated, total RNA was isolated from olfactory bulb and striatum, and cDNA was generated using primers specific for HIF-1α.

[4] = Intranasal delivery of DFO (59Fe-labeled ferrioxamine), tissue concentrations by scintillation counting; format: in vivo, rats; conditions: rat, 6 mg, intranasal ~6 mg, 25 min. after onset of delivery
Excerpt: Following delivery, tissues were removed for analysis.

[5] = system: middle cerebral artery occlusion (MCAO); test: Post-stroke intranasal DFO at start of reperfusion after MCAO, infarct volume; format: in vivo, rats
Experimental: In this regard, let us now turn to FIG. 4. Here, the experimental method is as follows: The method is the same as described above in connection with FIG. 1, except that the subjects are not pretreated. […] Six doses of 10% DFO (6 mg DFO/dose) were administered in this manner; three doses of 10% DFO at 2-hour intervals on the day of surgery and the remaining three doses of 10% DFO at three-hour intervals on the day following surgery (40).

[6] = system: middle cerebral artery occlusion (MCAO); test: Pre-stroke intranasal DFO, 2-hour middle cerebral artery occlusion (MCAO), infarct volume by TTC staining; format: in vivo, rats; conditions: for total infarct volume: rats
[7] = system: middle cerebral artery occlusion (MCAO); test: Intranasal DFO pretreatment, infarct volume and brain swelling 24 hours after MCAO; format: in vivo, rats; conditions: 3 doses of 60 μl 10% intranasal DFO 48 hours before MCAO
Experimental: Further, another experiment was conducted to further discover the mechanisms that may be manipulated in order to achieve the desired therapeutic results. Thus, rats were treated with 3 doses of 60 μl 10% intranasal deferoxamine (DFO), or water, at 3 hours intervals. The two groups of rats were either sacrificed or subjected to a 2-hour Middle Cerebral Artery Occlusion (MCAO) 48 hours later. Those rats undergoing the MCAO were sacrificed 24 hours after the MCAO.
In addition to the bioarray and PCR results, total infarct volume, cortical infarct volume and brain swelling were assessed for the rats pretreated with intranasal DFO with stroke and untreated rats with stroke 24 hours after MCAO.

[8] = one dose of 10% DFO intranasal pre-stroke, 5 days after MCAO
[9] = three doses of 3% DFO intranasal pre-stroke
[10] = three doses of 10% DFO intranasal pre-stroke, 5 days after MCAO

In the case of `CC(=O)N(O)CCCCCNC(=O)CCC(=O)N(O)CCCCCNC(=O)CCC(=O)N(O)CCCCCN` [DFO, deferoxamine], the “effect of intravenous bolus injection” value [1] is listed as “causes acute hypotension”, the plasma half-life [2] is listed as “less than 10 minutes” and the “elevation of HIF-1α protein in olfactory bulb” value [3] is listed as “approximately 30 fold”. The “elevation of HIF-1α protein in striatum” value [3] was about 20 fold, the concentration at 25 min ([4]; olfactory epithelium, read-out: DFO concentration, Olfactory Epithelium) was 12000 µM and the concentration at 25 min ([4]; septal nucleus, read-out: DFO concentration, Septal Nucleus) was 2.6 µM. The concentration at 25 min ([4]; thalamus, read-out: DFO concentration, Thalamus) was 1.1 µM, the total infarct volume ([5]; rats, six doses of 10% DFO (6 mg/dose) intranasal post-stroke from start of reperfusion) was 116 mm^3 and the “reduction of total infarct volume” value ([5]; six doses of 10% DFO intranasal post-stroke) was 55%. The “overall infarct volume reduction” value [6, 8] was 26%, the total infarct volume [6, 8] was 86.72 mm^3 and the total infarct volume [6, 9] was 101.83 mm^3. The total infarct volume ([6]; three doses of 10% DFO (6 mg each) intranasal 48 hours before 2-hour MCAO, 5 days after MCAO) was 70.57 mm^3, the “reduction of total infarct volume” value [6, 9] was 35% and the “reduction of cortical infarct volume” value [6, 10] was 60%. The “reduction of striatal infarct volume” value [6, 10] was 60%, the “reduction of total infarct volume” value ([6]; three doses of 10% DFO intranasal pre-stroke, 5 days after MCAO, vs distilled water controls) was 60% and the “decrease in brain swelling” value [7] was 71%. For the same compound, the “decrease in cortical infarct volume” value [7] was 72% and the “decrease in total infarct volume” value ([7]; rats) was 56%.
